Experimental data: US7288556B2, “Antiproliferative 1,2,3-thiadiazole compounds” (QLT Inc., priority 2000, dated 2007)

Biological target: T1, integrin linked kinase (ILK1), full-length recombinant GST-ILK (Homo sapiens, UniProt Q13418)
T1 construct: The target integrin linked kinase is a full-length recombinant protein expressed in sF9 insect cells by baculovirus infection; made in house; host or cells: Baculovirus; virus amplified in Sf9 cells, protein expressed in Hi5 insect cells
T1 sequence (Q13418 1-452): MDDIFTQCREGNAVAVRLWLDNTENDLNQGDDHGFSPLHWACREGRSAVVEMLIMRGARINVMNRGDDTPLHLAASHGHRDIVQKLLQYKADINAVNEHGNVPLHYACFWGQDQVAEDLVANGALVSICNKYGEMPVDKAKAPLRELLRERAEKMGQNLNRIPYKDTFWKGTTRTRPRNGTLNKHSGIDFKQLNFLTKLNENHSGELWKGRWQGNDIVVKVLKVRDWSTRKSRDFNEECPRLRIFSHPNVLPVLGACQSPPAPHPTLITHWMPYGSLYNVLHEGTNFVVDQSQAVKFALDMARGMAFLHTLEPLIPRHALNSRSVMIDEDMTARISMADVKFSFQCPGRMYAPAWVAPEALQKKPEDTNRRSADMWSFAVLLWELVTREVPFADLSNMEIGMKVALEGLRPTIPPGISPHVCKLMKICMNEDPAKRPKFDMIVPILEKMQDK
Test: Integrin linked kinase inhibition assay (radioactive phosphate incorporation, scintillation counting)
Format: biochemical
Details: not given
Protocol: Compounds are screened using a series of disease related kinase targets, such as integrin linked kinase-1. Synthesized libraries of compounds are tested against each of the targets to find compounds that inhibit one of the targets preferentially.
Inhibition of the targets is measured by scintillation counting; the incorporation of radioactive phosphate onto a specific substrate which is immobilized onto a filter paper at the end of the assay. To provide meaningful measurements of inhibition, the assays are performed both in the absence and presence of specific and known inhibitors, and the amount of incorporated radioactivity is compared to provide a baseline measurement.
Inhibition Assay: Compounds listed in Table 1 were lyophilized and stored at −20° C. Stock solutions were made by weighing out the compounds and dissolving them in dimethyl sulfoxide (DMSO) to a standard concentration, usually 20 mM, and stored at −20° C. […] Diluted 100% DMSO was used as a negative control.
A volume of 5 μl of each compound dilution were robotically pipetted to Costar serocluster plates maintaining the same plate format. All assays consisted of the following volumes: • 5 μl diluted compound • 10 μl enzyme preparation • 5 μl substrate • 5 μl assay ATP and were then incubated 15 min at room temperature.
From each reaction, 10 μl of reaction mix was spotted onto Millipore Multiscreen-PH opaque plates and washed 2×10 min in 1% phosphoric acid. The plates were dried for at 40° C. for 30 min, then the substrate phosphate complexes were quantitated by scintillation counting. These Millipore plates are in a 96 well format with immobilized P81 phosphocellulose membranes. Both the phosphorylated and non-phosphorylated form of the substrate bind to the membrane while ATP (unincorporated phosphate) is removed in the subsequent wash steps.
Integrin Linked Kinase: The target integrin linked kinase is a full-length recombinant protein expressed in sF9 insect cells by baculovirus infection. The ILK1 substrate is […]-amide.
Recombinant ILK protein was expressed using cultured insect cells and a baculovirus expression system.
A large scale plasmid preparation of the resulting transfer construct was made using a Qiagen Plasmid Midi Kit. This ILK transfer construct was then co-transfected with BaculoGold DNA (Pharmingen) into Sf9 insect cells (Invitrogen) and a high titre preparation of GST-ILK recombinant baculovirus was produced by amplification in Sf9 cells. Liter scale expression of GST-ILK recombinant protein was done in 1000 ml spinner flasks (Bellco) by infection of Hi5 insect cells (Invitrogen) grown in Ex-Cell 400 Serum Free Media (JRH Biosciences) at a multiplicity of infection of approximately 5. The cells were harvested three days after infection and lysed in Hypotonic Lysis Buffer (HLB; 10 mM imidazole, 5 mM EDTA, 0.1% β-mercaptoethanol, 10 ug/ml PMSF, 1 mM benzamidine) by sonication. The lysate was centrifuged at 10,000×g for 20 min and the supernatant was discarded. The pellet was washed twice in HLB and then washed twice in High Salt Buffer (HSB; 500 mM NaCl, 10 mM imidazole, 5 mM EDTA, 0.1% β-mercaptoethanol, 10 ug/ml PMSF, 1 mM benzamidine). The pellet was then resuspended in DNAse-ATP Buffer (DAB; 10 mM MgCl2, 1 mM MnCl2, β-methyl aspartic acid, 2 mM NaF, 0.55 mg/ml ATP, 1 ug/ml DNAse I, 1% NP-40, 10 mM imidazole, 5 mM EDTA, 0.1% β-mercaptoethanol, 10 ug/ml PMSF, 1 mM benzamidine) and stirred for 30 min at room temperature, and then centrifuged at 10,000×g for 20 min. The pellet was resuspended in High Salt Detergent Buffer (HDB; 1% NP-40, 1% Triton X-100, 500 mM NaCl, 10 mM imidazole, 5 mM EDTA, 0.1% β-mercaptoethanol, 10 ug/ml PMSF, 1 mM benzamidine), stirred for 30 min at room temperature, and then centrufuged at 10,000×g for 20 min. The pellet was then washed once in each of HDB, HSB, and HLB, centrifuging at 10,000×g each time. Finally, the pellet was resuspended in HLB.

IC50 [µM] | SMILES
> 20 | NC(=O)c1nnsc1Nc1ccc(Br)cc1 [KP 27296, 5-(4-Bromophenylamino)-[1,2,3]thiadiazole-4-carboxylicacid amide]
> 20 | COc1ccc(Nc2snnc2C(N)=O)cc1 [KP 27297, 5-(4-Methoxyphenylamino)-[1,2,3]thiadiazole-4-carboxylicacid amide]
> 20 | CCOC(=O)Nc1snnc1C(N)=O [KP 27298, (4-Carbamoyl-[1,2,3]thiadiazol-5-yl)-carbamicacid ethyl ester]
> 20 | NC(=O)c1nnsc1NC12CC3CC(CC(C3)C1)C2 [KP 27299, 5-(Adamantan-1-ylamino)-[1,2,3]thiadiazole-4-carboxylicacid amide]
> 20 | NC(=O)c1nnsc1NC1CCCCC1 [KP 27300, 5-Cyclohexylamino-[1,2,3]thiadiazole-4-carboxylicacid amide]
> 20 | NC(=O)c1nnsc1NCc1ccccc1 [KP 27302, 5-Benzylamino-[1,2,3]thiadiazole-4-carboxylicacid amide]
> 20 | NC(=O)c1nnsc1NC(=O)c1ccccc1 [KP 27303, 5-Benzoylamino-[1,2,3]thiadiazole-4-carboxylicacid amide]
> 20 | CCNc1snnc1C(N)=O [KP 27304, 5-Ethylamino-[1,2,3]thiadiazole-4-carboxylicacid amide]
> 20 | CCCCCCNc1snnc1C(N)=O [KP 27305, 5-Hexylamino-[1,2,3]thiadiazole-4-carboxylicacid amide]
> 20 | CN(c1ccccc1)c1snnc1C(N)=O [KP 27420, 5-(Methylphenylamino)-[1,2,3]thiadiazole-4-carboxylicacid amide]
> 20 | CC(=O)NC(=O)c1nnsc1Nc1ccccc1 [KP 27421, 5-Phenylamino-[1,2,3]thiadiazole-4-carboxylicacid acetylamide]
> 20 | NCc1nnsc1Nc1ccccc1 [KP 27422, (4-Aminomethyl-[1,2,3]thiadiazol-5-yl)phenylamine]
> 20 | O=C(O)c1nnsc1Nc1ccccc1 [KP-27271, 5-Phenylamino-[1,2,3]thiadiazole-4-carboxylicacid]

System: chick chorioallantoic membrane
Test: Chick chorioallantoic membrane (CAM) developmental angiogenesis assay
Format: in vivo, chicken
Details: 50 μm
Protocol: e. Chick chorioallantoic membrane assay (CAM assay): was performed on fertilized chicken eggs and used as a test for angiogenesis inhibition.
Approximately 4 dozen fertilized eggs were sprayed with 70% ETOH and placed in a 180 egg incubator (GQF Sportsman incubator). The eggs were incubated “rounded-side down” and were fully rotated along the vertical axis every 30 minutes at 37° C. under 90% relative humidity.
After 4 days, the eggs were placed upside down (round side up) for 5-10 minutes, before a round hole approximately 3 centimeters in diameter was created above the pointed end or “air hole” of the egg using sterile blunt-ended forceps (“deshelling”). The inner membrane was also removed, and the embryo was visible through this opening. A small portion of the outer membrane was then carefully removed using fine-tipped forceps in order to expose the CAM. Sterile Parafilm was placed over the de-shelled opening to create an airtight seal. The eggs were returned to the incubator (with no rotation) for 2 days.
Viable eggs were then treated with control and inhibitor compounds. Gelfoam™ gelatin sterile sponge (Upjohn) or 1-2 mm discs of methylcellulose saturated with physiological saline, buffer or an appropriate dilution of the compounds under investigation. The Gelfoam™ fragments of methylcellulose discs were added directly to the surface of the developing CAM. Care was taken not to add the treatment directly over a large vessel. The shells were marked in 3 places to aid in stereotactic localization of the treatment sponge or disc. An average of 6 eggs were included for each experimental condition. The treated eggs were returned to the incubator for 2 days.
The eggs were then assessed for blood vessel growth inhibition. Photomicrographs for records and visual examination were made using a Nikon dissecting microscope with an attached Nikon 35-mm camera body.

SMILES | % Inhibition [%]
NC(=O)c1nnsc1Nc1cccc2ccccc12 [KP 27301, 5-(Naphthalen-1-ylamino)-[1,2,3]thiadiazole-4-carboxylicacid amide] | 100
CCNc1snnc1C(N)=O [KP 27304, 5-Ethylamino-[1,2,3]thiadiazole-4-carboxylicacid amide] | 60

System: not given
Test: not given
Details: not given

melting point [°C] | SMILES
194 to 196 | CN(c1ccccc1)c1snnc1C(N)=O [KP 27420, 5-(Methylphenylamino)-[1,2,3]thiadiazole-4-carboxylicacid amide]
